Laboratory results: paper PMC11589570, “Critical assessment of LC3/GABARAP ligands used for degrader development and ligandability of LC3/GABARAP binding pockets” (Nature Communications, 2024)
Values joined by “and” are separate entries in the source; they are usually repeats but may differ in a detail not shown here. Identical values can stand only once.

Key:
Experiment in all cases: FP assay with Cy5-labelled p62 LIR tracer (protein titration and tracer displacement)
LC3C = LC3C (Homo sapiens, UniProt Q9BXW4); assay type: binding; details: for normalized FP signal, p62 LIR tracer displacement: LC3C, listed as AN1; for compound titration LC3C (displacement curve, FP signal): two replicate columns per compound
Chain of LC3C (Q9BXW4 1-126): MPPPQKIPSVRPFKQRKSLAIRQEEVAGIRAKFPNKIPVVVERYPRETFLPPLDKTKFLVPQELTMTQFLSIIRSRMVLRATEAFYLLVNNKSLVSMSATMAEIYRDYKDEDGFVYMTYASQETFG

GABARAP = GABARAP (Homo sapiens, UniProt O95166); assay type: binding; details: for normalized FP signal, p62 LIR tracer displacement: GABARAP, listed as AN1; for compound titration GABARAP (displacement curve, FP signal): two replicate columns per compound
Chain of GABARAP (O95166 1-116): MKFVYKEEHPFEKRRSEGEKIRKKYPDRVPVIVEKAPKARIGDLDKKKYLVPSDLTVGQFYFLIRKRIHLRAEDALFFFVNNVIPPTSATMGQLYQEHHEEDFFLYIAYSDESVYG

GABARAPL2 = GABARAPL2 (Homo sapiens, UniProt P60520); details: GABARAPL2
Chain of GABARAPL2 (P60520 whole entry): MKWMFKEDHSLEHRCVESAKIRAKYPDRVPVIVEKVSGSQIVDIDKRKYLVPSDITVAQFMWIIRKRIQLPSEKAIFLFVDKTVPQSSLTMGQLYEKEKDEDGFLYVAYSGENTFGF

[1] = log10 concentration [M] -3.82391
[2] = log10 concentration [M] -4.1549
[3] = log10 concentration [M] -4.60206
[4] = log10 concentration [M] -5.30103
[5] = log10 concentration [M] -5.69897
[6] = log10 concentration [M] -6.22185
[7] = log10 concentration [M] -6.69897
[8] = log10 concentration [M] -7.30103
[9] = log10 concentration [M] -7.79588
[10] = log10 concentration [M] -8.08092

Compound: O=C1Nc2ccc(Br)cc2C1=Cc1cc(O)c(O)c(Br)c1 [compound 1]
- normalized FP signal, p62 LIR tracer displacement (LC3C; [1]): 79.6 and 85.8
- normalized FP signal, p62 LIR tracer displacement (LC3C; [2]): 89.2 and 87.8
- normalized FP signal, p62 LIR tracer displacement (LC3C; [3]): 89.4 and 94.4
- normalized FP signal, p62 LIR tracer displacement (LC3C; log10 concentration [M] -5): 89.6 and 94
- normalized FP signal, p62 LIR tracer displacement (LC3C; [4]): 93 and 97.8
- normalized FP signal, p62 LIR tracer displacement (LC3C; [5]): 84.2 and 88.6
- normalized FP signal, p62 LIR tracer displacement (LC3C; [6]): 82.6 and 92
- normalized FP signal, p62 LIR tracer displacement (LC3C; [7]): 93.4 and 98.2
- normalized FP signal, p62 LIR tracer displacement (LC3C; [8]): 96.4
- normalized FP signal, p62 LIR tracer displacement (LC3C; [9]): 91.2 and 92.8
- normalized FP signal, p62 LIR tracer displacement (LC3C; [10]): 88.2 and 91.8
- compound titration LC3C (displacement curve, FP signal) (LC3C; [1]): 79.6 and 85.8
- compound titration LC3C (displacement curve, FP signal) (LC3C; [2]): 89.2 and 87.8
- compound titration LC3C (displacement curve, FP signal) (LC3C; [3]): 89.4 and 94.4
- compound titration LC3C (displacement curve, FP signal) (LC3C; log10 concentration [M] -5): 89.6 and 94
- compound titration LC3C (displacement curve, FP signal) (LC3C; [4]): 93 and 97.8
- compound titration LC3C (displacement curve, FP signal) (LC3C; [5]): 84.2 and 88.6
- compound titration LC3C (displacement curve, FP signal) (LC3C; [6]): 82.6 and 92
- compound titration LC3C (displacement curve, FP signal) (LC3C; [7]): 93.4 and 98.2
- compound titration LC3C (displacement curve, FP signal) (LC3C; [8]): 96.4
- compound titration LC3C (displacement curve, FP signal) (LC3C; [9]): 91.2 and 92.8
- compound titration LC3C (displacement curve, FP signal) (LC3C; [10]): 88.2 and 91.8
- normalized FP signal, p62 LIR tracer displacement (GABARAP; [1]): 88.1034 and 91.0345
- normalized FP signal, p62 LIR tracer displacement (GABARAP; [2]): 88.6207 and 92.2414
- normalized FP signal, p62 LIR tracer displacement (GABARAP; [3]): 90.1724 and 94.8276
- normalized FP signal, p62 LIR tracer displacement (GABARAP; log10 concentration [M] -5): 93.7931 and 97.069
- normalized FP signal, p62 LIR tracer displacement (GABARAP; [4]): 96.0345 and 95.3448
- normalized FP signal, p62 LIR tracer displacement (GABARAP; [5]): 85 and 92.069
- normalized FP signal, p62 LIR tracer displacement (GABARAP; [6]): 93.4483 and 97.5862
- normalized FP signal, p62 LIR tracer displacement (GABARAP; [7]): 98.1034 and 94.3103
- normalized FP signal, p62 LIR tracer displacement (GABARAP; [8]): 97.4138 and 96.5517
- normalized FP signal, p62 LIR tracer displacement (GABARAP; [9]): 92.4138 and 89.8276
- normalized FP signal, p62 LIR tracer displacement (GABARAP; [10]): 89.1379 and 97.2414
- compound titration GABARAP (displacement curve, FP signal) (GABARAP; [1]): 88.1034 and 91.0345
- compound titration GABARAP (displacement curve, FP signal) (GABARAP; [2]): 88.6207 and 92.2414
- compound titration GABARAP (displacement curve, FP signal) (GABARAP; [3]): 90.1724 and 94.8276
- compound titration GABARAP (displacement curve, FP signal) (GABARAP; log10 concentration [M] -5): 93.7931 and 97.069
- compound titration GABARAP (displacement curve, FP signal) (GABARAP; [4]): 96.0345 and 95.3448
- compound titration GABARAP (displacement curve, FP signal) (GABARAP; [5]): 85 and 92.069
- compound titration GABARAP (displacement curve, FP signal) (GABARAP; [6]): 93.4483 and 97.5862
- compound titration GABARAP (displacement curve, FP signal) (GABARAP; [7]): 98.1034 and 94.3103
- compound titration GABARAP (displacement curve, FP signal) (GABARAP; [8]): 97.4138 and 96.5517
- compound titration GABARAP (displacement curve, FP signal) (GABARAP; [9]): 92.4138 and 89.8276
- compound titration GABARAP (displacement curve, FP signal) (GABARAP; [10]): 89.1379 and 97.2414
- normalized FP signal, p62 LIR tracer displacement (GABARAPL2; log10 concentration [M] -3.82391, listed as AN1): 91.2 and 81.6
- normalized FP signal, p62 LIR tracer displacement (GABARAPL2; log10 concentration [M] -4.1549, listed as AN1): 91.2 and 92.8
- normalized FP signal, p62 LIR tracer displacement (GABARAPL2; log10 concentration [M] -4.60206, listed as AN1): 92.8 and 98.4
- normalized FP signal, p62 LIR tracer displacement (GABARAPL2; log10 concentration [M] -5): 109.2
- normalized FP signal, p62 LIR tracer displacement (GABARAPL2; log10 concentration [M] -5.30103, listed as AN1): 91.6 and 94.8
- normalized FP signal, p62 LIR tracer displacement (GABARAPL2; log10 concentration [M] -5.69897, listed as AN1): 82.8 and 89.2
- normalized FP signal, p62 LIR tracer displacement (GABARAPL2; [6]): 88
- normalized FP signal, p62 LIR tracer displacement (GABARAPL2; log10 concentration [M] -6.22185, listed as AN1): 104.4
- normalized FP signal, p62 LIR tracer displacement (GABARAPL2; [7]): 89.6
- normalized FP signal, p62 LIR tracer displacement (GABARAPL2; [8]): 94
- normalized FP signal, p62 LIR tracer displacement (GABARAPL2; log10 concentration [M] -7.79588, listed as AN1): 90.4 and 93.2
